Reference: the kinase profiling compilation of Christmann-Franck et al. (2016)

Columns and labels:
Assay in all cases: KINOMEscan competition binding
Conditions in all cases: compound 10.0 µM
[1] = tested on: ABL1 (human), P00519 [Y253F]
AKT1 (human) = AKT1 (human) (UniProt P31749)
CDKL5 (human) = CDKL5 (human) (UniProt O76039)
CRK2 (P.falciparum) = CRK2 (P.falciparum) (UniProt P61075)
CSF1R (human) = CSF1R (human) (UniProt P07333)
DAPK3 (human) = DAPK3 (human) (UniProt O43293)
[2] = tested on: EGFR (human), P00533 [747-751 del / S ins]
EPHA3 (human) = EPHA3 (human) (UniProt P29320)
FGFR2 (human) = FGFR2 (human) (UniProt P21802)
FLT3 (human) = FLT3 (human) (UniProt P36888)
GSK3A (human) = GSK3A (human) (UniProt P49840)
GSK3B (human) = GSK3B (human) (UniProt P49841)
MAP3K10 (human) = MAP3K10 (human) (UniProt Q02779)
MAPK10 (human) = MAPK10 (human) (UniProt P53779)
MAPKAPK2 (human) = MAPKAPK2 (human) (UniProt P49137)
MARK1 (human) = MARK1 (human) (UniProt Q9P0L2)
MATK (human) = MATK (human) (UniProt P42679)
MELK (human) = MELK (human) (UniProt Q14680)
MYLK2 (human) = MYLK2 (human) (UniProt Q9H1R3)
NEK1 (human) = NEK1 (human) (UniProt Q96PY6)
NEK7 (human) = NEK7 (human) (UniProt Q8TDX7)
PIK3CB (human) = PIK3CB (human) (UniProt P42338)
PIP4K2C (human) = PIP4K2C (human) (UniProt Q8TBX8)
PKN3 (M.tuberculosis) = PKN3 (M.tuberculosis) (UniProt Q6P5Z2)
PRKG2 (human) = PRKG2 (human) (UniProt Q13237)
PRKX (human) = PRKX (human) (UniProt P51817)
PTK6 (human) = PTK6 (human) (UniProt Q13882)
RIOK1 (human) = RIOK1 (human) (UniProt Q9BRS2)
RIPK1 (human) = RIPK1 (human) (UniProt Q13546)
RIPK4 (human) = RIPK4 (human) (UniProt P57078)
RPS6KA2 KD1 (human) = RPS6KA2 KD1 (human) (UniProt Q15349)
RPS6KA2 KD2 (human) = RPS6KA2 KD2 (human) (UniProt Q15349)
RPS6KA6 KD1 (human) = RPS6KA6 KD1 (human) (UniProt Q9UK32)
SIK1 (human) = SIK1 (human) (UniProt P57059)
SRPK2 (human) = SRPK2 (human) (UniProt P78362)
STK25 (human) = STK25 (human) (UniProt O00506)
STK32C (human) = STK32C (human) (UniProt Q86UX6)
STK4 (human) = STK4 (human) (UniProt Q13043)
[3] = molecular target: TYK2 JH1 catalytic (human) (UniProt P29597)
VRK2 (human) = VRK2 (human) (UniProt Q86Y07)

SIK1 (human), sequence (P57059 whole entry, looked up): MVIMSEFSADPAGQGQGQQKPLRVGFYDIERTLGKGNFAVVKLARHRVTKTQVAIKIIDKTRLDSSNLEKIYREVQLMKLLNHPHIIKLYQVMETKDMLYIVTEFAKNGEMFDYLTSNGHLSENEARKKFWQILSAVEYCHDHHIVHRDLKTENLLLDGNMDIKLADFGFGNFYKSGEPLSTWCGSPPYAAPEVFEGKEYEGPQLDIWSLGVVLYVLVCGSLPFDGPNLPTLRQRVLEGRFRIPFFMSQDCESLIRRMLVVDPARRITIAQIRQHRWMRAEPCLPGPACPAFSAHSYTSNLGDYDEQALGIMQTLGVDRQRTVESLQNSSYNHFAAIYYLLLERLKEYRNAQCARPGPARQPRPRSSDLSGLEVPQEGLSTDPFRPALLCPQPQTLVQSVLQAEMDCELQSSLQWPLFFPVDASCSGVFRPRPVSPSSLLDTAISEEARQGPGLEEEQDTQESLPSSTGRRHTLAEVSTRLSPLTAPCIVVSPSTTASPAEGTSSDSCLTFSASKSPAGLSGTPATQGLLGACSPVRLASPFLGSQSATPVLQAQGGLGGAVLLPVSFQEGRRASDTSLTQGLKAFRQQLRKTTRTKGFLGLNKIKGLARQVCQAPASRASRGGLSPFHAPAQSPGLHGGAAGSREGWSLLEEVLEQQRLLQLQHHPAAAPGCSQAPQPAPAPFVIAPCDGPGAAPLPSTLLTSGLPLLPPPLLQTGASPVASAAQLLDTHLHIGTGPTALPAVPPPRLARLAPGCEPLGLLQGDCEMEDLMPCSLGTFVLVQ
RPS6KA2 KD2 (human), sequence (Q15349 whole entry, looked up): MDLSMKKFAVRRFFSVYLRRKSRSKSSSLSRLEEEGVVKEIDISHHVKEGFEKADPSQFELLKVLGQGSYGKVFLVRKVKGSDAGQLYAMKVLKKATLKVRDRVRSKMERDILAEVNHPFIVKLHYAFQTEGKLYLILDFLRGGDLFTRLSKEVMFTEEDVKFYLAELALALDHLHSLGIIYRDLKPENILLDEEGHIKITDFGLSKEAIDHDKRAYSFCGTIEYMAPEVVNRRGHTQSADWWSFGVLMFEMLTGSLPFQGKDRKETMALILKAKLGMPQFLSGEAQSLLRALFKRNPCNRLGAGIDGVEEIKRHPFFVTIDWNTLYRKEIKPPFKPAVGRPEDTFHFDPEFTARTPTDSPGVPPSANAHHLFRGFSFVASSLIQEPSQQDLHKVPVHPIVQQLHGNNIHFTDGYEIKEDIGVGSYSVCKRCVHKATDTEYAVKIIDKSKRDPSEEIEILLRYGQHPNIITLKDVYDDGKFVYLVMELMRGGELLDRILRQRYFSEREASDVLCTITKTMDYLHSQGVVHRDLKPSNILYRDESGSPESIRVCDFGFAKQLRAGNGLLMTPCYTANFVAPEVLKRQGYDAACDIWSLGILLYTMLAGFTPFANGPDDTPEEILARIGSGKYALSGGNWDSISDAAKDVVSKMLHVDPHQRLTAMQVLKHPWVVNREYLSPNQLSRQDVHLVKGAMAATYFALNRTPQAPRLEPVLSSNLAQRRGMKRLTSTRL
RPS6KA2 KD1 (human), sequence (Q15349 whole entry, looked up): as above
MAPK10 (human), sequence (P53779 whole entry, looked up): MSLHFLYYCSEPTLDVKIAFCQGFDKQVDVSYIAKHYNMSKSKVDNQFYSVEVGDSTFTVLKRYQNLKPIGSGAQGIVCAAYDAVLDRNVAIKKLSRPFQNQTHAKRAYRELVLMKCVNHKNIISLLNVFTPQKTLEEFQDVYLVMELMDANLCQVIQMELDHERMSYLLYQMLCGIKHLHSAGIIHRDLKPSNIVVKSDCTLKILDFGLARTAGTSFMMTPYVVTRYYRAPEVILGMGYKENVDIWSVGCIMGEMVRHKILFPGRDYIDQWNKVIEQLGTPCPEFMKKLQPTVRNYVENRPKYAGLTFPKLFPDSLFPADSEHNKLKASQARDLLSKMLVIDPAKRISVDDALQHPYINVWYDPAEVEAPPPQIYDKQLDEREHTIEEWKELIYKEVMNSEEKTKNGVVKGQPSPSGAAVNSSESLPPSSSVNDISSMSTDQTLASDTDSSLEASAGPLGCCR
FLT3 (human), sequence (P36888 whole entry, looked up): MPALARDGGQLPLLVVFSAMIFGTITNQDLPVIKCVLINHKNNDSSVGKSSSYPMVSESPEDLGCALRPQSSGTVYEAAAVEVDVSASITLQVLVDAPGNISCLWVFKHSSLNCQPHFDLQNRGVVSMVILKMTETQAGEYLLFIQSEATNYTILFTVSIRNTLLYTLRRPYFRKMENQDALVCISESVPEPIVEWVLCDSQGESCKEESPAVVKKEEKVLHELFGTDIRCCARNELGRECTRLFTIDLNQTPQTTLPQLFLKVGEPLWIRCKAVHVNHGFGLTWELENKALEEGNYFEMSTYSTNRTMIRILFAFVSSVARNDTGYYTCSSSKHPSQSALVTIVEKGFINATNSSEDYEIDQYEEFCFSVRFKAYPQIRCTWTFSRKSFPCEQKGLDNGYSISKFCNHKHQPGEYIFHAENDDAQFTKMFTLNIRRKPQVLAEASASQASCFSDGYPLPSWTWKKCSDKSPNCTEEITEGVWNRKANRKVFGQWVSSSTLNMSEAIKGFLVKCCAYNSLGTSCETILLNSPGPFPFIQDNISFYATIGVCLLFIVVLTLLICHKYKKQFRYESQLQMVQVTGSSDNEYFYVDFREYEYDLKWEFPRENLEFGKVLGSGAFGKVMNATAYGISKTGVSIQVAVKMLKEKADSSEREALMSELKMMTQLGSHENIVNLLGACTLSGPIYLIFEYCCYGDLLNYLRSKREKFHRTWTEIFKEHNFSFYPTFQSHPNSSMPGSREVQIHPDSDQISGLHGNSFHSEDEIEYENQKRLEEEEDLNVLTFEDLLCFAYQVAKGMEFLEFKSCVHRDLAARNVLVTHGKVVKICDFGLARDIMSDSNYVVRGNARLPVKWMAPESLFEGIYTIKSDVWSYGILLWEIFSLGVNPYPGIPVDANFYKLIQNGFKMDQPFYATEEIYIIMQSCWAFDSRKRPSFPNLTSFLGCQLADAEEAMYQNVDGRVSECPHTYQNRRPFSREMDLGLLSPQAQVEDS
TYK2 JH1 catalytic (human), sequence (P29597 whole entry, looked up): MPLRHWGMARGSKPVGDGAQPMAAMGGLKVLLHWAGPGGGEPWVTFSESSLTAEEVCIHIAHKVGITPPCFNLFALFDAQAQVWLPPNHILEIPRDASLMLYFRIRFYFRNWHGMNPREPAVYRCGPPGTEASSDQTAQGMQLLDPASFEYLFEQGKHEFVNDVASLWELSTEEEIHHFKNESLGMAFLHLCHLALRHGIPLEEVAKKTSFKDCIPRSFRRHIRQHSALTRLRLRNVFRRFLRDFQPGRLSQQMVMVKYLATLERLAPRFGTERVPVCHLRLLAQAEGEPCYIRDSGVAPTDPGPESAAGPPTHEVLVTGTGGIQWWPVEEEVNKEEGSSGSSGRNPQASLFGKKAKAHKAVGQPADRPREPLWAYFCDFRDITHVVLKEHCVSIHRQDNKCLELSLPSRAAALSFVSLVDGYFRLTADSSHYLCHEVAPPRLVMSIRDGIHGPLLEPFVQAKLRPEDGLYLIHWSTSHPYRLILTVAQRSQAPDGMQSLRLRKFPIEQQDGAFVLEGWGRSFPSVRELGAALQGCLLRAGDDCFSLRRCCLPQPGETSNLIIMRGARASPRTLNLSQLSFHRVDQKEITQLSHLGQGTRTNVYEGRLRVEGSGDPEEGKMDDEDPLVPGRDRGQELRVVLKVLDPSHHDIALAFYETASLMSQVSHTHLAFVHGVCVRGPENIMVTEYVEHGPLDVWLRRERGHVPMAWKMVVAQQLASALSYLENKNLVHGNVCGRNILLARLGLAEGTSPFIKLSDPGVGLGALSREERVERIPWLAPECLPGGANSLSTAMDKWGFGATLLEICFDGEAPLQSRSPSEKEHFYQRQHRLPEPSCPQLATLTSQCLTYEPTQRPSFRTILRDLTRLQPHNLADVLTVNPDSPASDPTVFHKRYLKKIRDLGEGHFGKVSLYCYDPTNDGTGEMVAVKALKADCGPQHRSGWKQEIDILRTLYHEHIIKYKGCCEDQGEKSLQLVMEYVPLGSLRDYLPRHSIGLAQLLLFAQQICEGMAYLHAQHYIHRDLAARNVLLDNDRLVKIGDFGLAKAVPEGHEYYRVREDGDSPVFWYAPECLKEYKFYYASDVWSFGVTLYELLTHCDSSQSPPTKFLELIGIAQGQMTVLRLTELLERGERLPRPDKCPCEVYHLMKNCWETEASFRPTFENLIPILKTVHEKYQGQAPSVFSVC
RIPK4 (human), sequence (P57078 whole entry, looked up): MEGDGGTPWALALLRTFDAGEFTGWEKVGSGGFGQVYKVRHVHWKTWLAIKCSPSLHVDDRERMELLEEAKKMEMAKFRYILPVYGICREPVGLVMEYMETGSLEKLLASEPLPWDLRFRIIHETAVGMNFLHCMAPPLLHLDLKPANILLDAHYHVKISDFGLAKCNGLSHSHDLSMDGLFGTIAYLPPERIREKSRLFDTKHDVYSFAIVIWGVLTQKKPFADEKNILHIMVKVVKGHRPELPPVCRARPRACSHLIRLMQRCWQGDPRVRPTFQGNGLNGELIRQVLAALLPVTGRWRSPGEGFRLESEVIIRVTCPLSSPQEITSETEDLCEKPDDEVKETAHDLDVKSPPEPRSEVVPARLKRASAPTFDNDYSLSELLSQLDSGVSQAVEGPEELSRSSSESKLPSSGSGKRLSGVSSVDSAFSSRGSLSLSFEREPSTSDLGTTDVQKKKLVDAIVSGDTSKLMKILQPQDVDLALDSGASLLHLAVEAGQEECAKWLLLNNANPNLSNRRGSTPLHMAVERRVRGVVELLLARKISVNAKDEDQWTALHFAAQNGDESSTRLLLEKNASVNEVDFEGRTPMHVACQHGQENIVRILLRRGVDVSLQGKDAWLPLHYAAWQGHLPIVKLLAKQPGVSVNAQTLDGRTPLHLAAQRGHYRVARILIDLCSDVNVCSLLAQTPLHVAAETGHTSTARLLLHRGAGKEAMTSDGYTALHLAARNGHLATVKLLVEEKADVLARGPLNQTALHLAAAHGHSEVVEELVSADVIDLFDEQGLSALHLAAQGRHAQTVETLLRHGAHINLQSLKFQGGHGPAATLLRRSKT

Row | Compound | kinase still bound, per cent of control [1] [%] | kinase still bound, per cent of control (AKT1 (human)) [%] | kinase still bound, per cent of control (CDKL5 (human)) [%] | kinase still bound, per cent of control (CRK2 (P.falciparum)) [%] | kinase still bound, per cent of control (CSF1R (human)) [%] | kinase still bound, per cent of control (DAPK3 (human)) [%] | kinase still bound, per cent of control [2] [%] | kinase still bound, per cent of control (EPHA3 (human)) [%] | kinase still bound, per cent of control (FGFR2 (human)) [%] | kinase still bound, per cent of control (FLT3 (human)) [%] | kinase still bound, per cent of control (GSK3A (human)) [%] | kinase still bound, per cent of control (GSK3B (human)) [%] | kinase still bound, per cent of control (MAP3K10 (human)) [%] | kinase still bound, per cent of control (MAPK10 (human)) [%] | kinase still bound, per cent of control (MAPKAPK2 (human)) [%] | kinase still bound, per cent of control (MARK1 (human)) [%] | kinase still bound, per cent of control (MATK (human)) [%] | kinase still bound, per cent of control (MELK (human)) [%] | kinase still bound, per cent of control (MYLK2 (human)) [%] | kinase still bound, per cent of control (NEK1 (human)) [%] | other results
1 | O=c1cc(N2CCOCC2)oc2c(-c3cccc4c3sc3ccccc34)cccc12 | 100 | 89 | 100 | 100 | 100 | 92 | 100 | 91 | 82 | 100 | 78 | 44 | 100 | 100 | 100 | 100 | 99 | 100 | 100 | 58 | kinase still bound, per cent of control (NEK7 (human)): 100%; kinase still bound, per cent of control (PIK3CB (human)): 0%; kinase still bound, per cent of control (PIP4K2C (human)): 89%; kinase still bound, per cent of control (PKN3 (M.tuberculosis)): 6.6%; kinase still bound, per cent of control (PRKG2 (human)): 93%; kinase still bound, per cent of control (PRKX (human)): 89%; kinase still bound, per cent of control (PTK6 (human)): 98%; kinase still bound, per cent of control (RIOK1 (human)): 100%; kinase still bound, per cent of control (RIPK1 (human)): 100%; kinase still bound, per cent of control (RIPK4 (human)): 100%; kinase still bound, per cent of control (RPS6KA2 KD1 (human)): 97%; kinase still bound, per cent of control (RPS6KA2 KD2 (human)): 83%; kinase still bound, per cent of control (RPS6KA6 KD1 (human)): 71%; kinase still bound, per cent of control (SIK1 (human)): 100%; kinase still bound, per cent of control (SRPK2 (human)): 78%; kinase still bound, per cent of control (STK25 (human)): 59%; kinase still bound, per cent of control (STK32C (human)): 54%; kinase still bound, per cent of control (STK4 (human)): 98%; kinase still bound, per cent of control [3]: 75%; kinase still bound, per cent of control (VRK2 (human)): 100%
2 | CCN1CCN(C(=O)Cc2ccc(Nc3ncc(F)c(Nc4ccc(C(=O)Nc5ccccc5Cl)cc4)n3)cc2)CC1 | 16 | 100 | 100 | 100 | 6.5 | 5.2 | 47 | 62 | 25 | 0.7 | 88 | 61 | 7.2 | 0.8 | 100 | 51 | 100 | 55 | 66 | 17 | kinase still bound, per cent of control (NEK7 (human)): 2.6%; kinase still bound, per cent of control (PIK3CB (human)): 83%; kinase still bound, per cent of control (PIP4K2C (human)): 38%; kinase still bound, per cent of control (PKN3 (M.tuberculosis)): 5%; kinase still bound, per cent of control (PRKG2 (human)): 62%; kinase still bound, per cent of control (PRKX (human)): 76%; kinase still bound, per cent of control (PTK6 (human)): 16%; kinase still bound, per cent of control (RIOK1 (human)): 0%; kinase still bound, per cent of control (RIPK1 (human)): 96%; kinase still bound, per cent of control (RIPK4 (human)): 31%; kinase still bound, per cent of control (RPS6KA2 KD1 (human)): 65%; kinase still bound, per cent of control (RPS6KA2 KD2 (human)): 57%; kinase still bound, per cent of control (RPS6KA6 KD1 (human)): 37%; kinase still bound, per cent of control (SIK1 (human)): 28%; kinase still bound, per cent of control (SRPK2 (human)): 11%; kinase still bound, per cent of control (STK25 (human)): 35%; kinase still bound, per cent of control (STK32C (human)): 77%; kinase still bound, per cent of control (STK4 (human)): 98%; kinase still bound, per cent of control [3]: 22%; kinase still bound, per cent of control (VRK2 (human)): 100%
3 | COc1cc2ncnc(-n3nc(-c4ccccn4)nc3N)c2cc1OC | 0.3 | 100 | 0.3 | 94 | 52 | 4.6 | 77 | 11 | 76 | 20 | 73 | 100 | 62 | 1.4 | 100 | 86 | 57 | 9.2 | 61 | 36 | kinase still bound, per cent of control (NEK7 (human)): 1.4%; kinase still bound, per cent of control (PIK3CB (human)): 5%; kinase still bound, per cent of control (PIP4K2C (human)): 1.1%; kinase still bound, per cent of control (PKN3 (M.tuberculosis)): 7.1%; kinase still bound, per cent of control (PRKG2 (human)): 75%; kinase still bound, per cent of control (PRKX (human)): 79%; kinase still bound, per cent of control (PTK6 (human)): 51%; kinase still bound, per cent of control (RIOK1 (human)): 29%; kinase still bound, per cent of control (RIPK1 (human)): 86%; kinase still bound, per cent of control (RIPK4 (human)): 12%; kinase still bound, per cent of control (RPS6KA2 KD1 (human)): 76%; kinase still bound, per cent of control (RPS6KA2 KD2 (human)): 43%; kinase still bound, per cent of control (RPS6KA6 KD1 (human)): 20%; kinase still bound, per cent of control (SIK1 (human)): 45%; kinase still bound, per cent of control (SRPK2 (human)): 88%; kinase still bound, per cent of control (STK25 (human)): 33%; kinase still bound, per cent of control (STK32C (human)): 44%; kinase still bound, per cent of control (STK4 (human)): 61%; kinase still bound, per cent of control [3]: 22%; kinase still bound, per cent of control (VRK2 (human)): 9.8%
